“And” between values parts separate entries of the source, which are not always exact repeats. Equal values may be shown once.
How the values were obtained:
BRSK2 (human) = BRSK2 (human) (UniProt Q8IWQ3)
BTK (human) = BTK (human) (UniProt Q06187)
CAMKK2 (human) = CAMKK2 (human) (UniProt Q96RR4)
CHEK1 (human) = CHEK1 (human) (UniProt O14757)
CaMK1 (human) = CaMK1 (human) (UniProt Q14012)
DYRK1A (human) = DYRK1A (human) (UniProt Q13627)
DYRK2 (human) = DYRK2 (human) (UniProt Q92630)
EPHA2 (human) = EPHA2 (human) (UniProt P29317)
FLT1 (human) = FLT1 (human) (UniProt P17948)
GSK3B (human) = GSK3B (human) (UniProt P49841)
IKBKB (human) = IKBKB (human) (UniProt O14920)
IKBKE (human) = IKBKE (human) (UniProt Q14164)
LCK (mouse) = details: accession and sequence are those of the human protein
MAP2K1 (human) = MAP2K1 (human) (UniProt Q02750)
MAPK1 (human) = MAPK1 (human) (UniProt P28482)
MAPK14 (human) = MAPK14 (human) (UniProt Q16539)
MAPK15 (human) = MAPK15 (human) (UniProt Q8TD08)
MAPK3 (human) = MAPK3 (human) (UniProt P27361)
MAPK9 (human) = MAPK9 (human) (UniProt P45984)
MAPKAPK5 (human) = MAPKAPK5 (human) (UniProt Q8IW41)
MARK3 (human) = MARK3 (human) (UniProt P27448)
MKNK1 (human) = MKNK1 (human) (UniProt Q9BUB5)
NEK2 (human) = NEK2 (human) (UniProt P51955)
NEK6 (human) = NEK6 (human) (UniProt Q9HC98)
PAK4 (human) = PAK4 (human) (UniProt O96013)
PDPK1 (human) = PDPK1 (human) (UniProt O15530)
PHKG1 (human) = PHKG1 (human) (UniProt Q16816)
PIM1 (human) = PIM1 (human) (UniProt P11309)
PIM2 (human) = PIM2 (human) (UniProt Q9P1W9)
PKN2 (human) = PKN2 (human) (UniProt Q16513)
RPS6KA3 KD1 KD2 (human) = RPS6KA3 KD1 KD2 (human) (UniProt P51812)
RPS6KA5 KD1 KD2 (human) = RPS6KA5 KD1 KD2 (human) (UniProt O75582)
[1] = tested on: RPS6KB1 (human), P23443 [T412E]
CHEK2 (human) = CHEK2 (human) (UniProt O96017)

Sequence of DYRK2 (human) (Q92630 whole entry, looked up): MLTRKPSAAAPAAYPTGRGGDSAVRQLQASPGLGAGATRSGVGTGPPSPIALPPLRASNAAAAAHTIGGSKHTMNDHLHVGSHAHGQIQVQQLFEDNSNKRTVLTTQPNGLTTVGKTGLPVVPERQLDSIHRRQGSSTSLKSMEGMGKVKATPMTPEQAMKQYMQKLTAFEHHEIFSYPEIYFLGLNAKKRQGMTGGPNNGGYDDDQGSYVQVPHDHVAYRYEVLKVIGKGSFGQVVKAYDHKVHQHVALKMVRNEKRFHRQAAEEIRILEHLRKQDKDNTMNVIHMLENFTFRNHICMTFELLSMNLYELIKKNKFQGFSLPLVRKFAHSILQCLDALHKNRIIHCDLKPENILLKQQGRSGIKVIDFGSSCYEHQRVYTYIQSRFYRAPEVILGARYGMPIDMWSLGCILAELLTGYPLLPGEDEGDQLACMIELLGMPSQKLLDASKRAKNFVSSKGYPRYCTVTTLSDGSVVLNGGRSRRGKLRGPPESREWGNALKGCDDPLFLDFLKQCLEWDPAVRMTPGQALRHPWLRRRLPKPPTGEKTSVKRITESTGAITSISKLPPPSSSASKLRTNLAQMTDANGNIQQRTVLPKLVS
Sequence of MAPK14 (human) (Q16539 whole entry, looked up): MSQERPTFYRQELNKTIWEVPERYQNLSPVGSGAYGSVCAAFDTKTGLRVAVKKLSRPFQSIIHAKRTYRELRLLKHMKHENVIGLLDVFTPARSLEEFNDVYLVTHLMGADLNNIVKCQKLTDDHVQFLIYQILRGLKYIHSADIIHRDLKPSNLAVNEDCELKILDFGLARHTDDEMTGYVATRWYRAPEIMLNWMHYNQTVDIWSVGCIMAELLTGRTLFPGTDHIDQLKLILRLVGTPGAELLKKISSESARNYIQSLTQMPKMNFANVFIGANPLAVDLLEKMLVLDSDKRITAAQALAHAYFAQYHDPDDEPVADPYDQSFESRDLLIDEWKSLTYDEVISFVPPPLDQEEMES
Sequence of NEK2 (human) (P51955 whole entry, looked up): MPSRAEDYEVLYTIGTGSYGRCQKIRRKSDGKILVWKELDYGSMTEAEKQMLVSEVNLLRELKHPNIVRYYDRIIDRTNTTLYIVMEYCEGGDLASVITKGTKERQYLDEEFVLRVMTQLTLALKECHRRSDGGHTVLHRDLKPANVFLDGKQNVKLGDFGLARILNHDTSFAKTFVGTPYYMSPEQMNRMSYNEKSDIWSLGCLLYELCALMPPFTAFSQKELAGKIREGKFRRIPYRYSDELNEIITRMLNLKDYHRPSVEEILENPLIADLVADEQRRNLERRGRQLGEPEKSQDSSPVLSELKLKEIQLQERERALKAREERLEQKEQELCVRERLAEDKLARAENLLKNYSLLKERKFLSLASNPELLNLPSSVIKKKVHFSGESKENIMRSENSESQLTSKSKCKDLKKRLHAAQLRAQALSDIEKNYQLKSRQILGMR
Sequence of CAMKK2 (human) (Q96RR4 whole entry, looked up): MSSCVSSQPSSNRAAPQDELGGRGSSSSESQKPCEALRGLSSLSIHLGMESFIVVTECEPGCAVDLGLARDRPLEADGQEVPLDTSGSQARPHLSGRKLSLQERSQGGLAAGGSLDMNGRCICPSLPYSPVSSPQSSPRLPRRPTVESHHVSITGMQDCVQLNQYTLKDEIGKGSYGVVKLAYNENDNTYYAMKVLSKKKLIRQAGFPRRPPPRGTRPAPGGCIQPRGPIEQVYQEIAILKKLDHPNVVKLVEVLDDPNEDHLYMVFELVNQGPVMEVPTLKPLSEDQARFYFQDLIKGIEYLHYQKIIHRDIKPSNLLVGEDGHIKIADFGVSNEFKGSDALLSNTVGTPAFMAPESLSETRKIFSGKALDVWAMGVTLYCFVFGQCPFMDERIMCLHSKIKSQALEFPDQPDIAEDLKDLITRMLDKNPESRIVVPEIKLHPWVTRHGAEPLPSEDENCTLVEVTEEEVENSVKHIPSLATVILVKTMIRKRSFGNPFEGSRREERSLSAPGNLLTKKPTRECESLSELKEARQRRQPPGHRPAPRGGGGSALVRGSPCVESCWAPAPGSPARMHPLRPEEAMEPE
Sequence of GSK3B (human) (P49841 whole entry, looked up): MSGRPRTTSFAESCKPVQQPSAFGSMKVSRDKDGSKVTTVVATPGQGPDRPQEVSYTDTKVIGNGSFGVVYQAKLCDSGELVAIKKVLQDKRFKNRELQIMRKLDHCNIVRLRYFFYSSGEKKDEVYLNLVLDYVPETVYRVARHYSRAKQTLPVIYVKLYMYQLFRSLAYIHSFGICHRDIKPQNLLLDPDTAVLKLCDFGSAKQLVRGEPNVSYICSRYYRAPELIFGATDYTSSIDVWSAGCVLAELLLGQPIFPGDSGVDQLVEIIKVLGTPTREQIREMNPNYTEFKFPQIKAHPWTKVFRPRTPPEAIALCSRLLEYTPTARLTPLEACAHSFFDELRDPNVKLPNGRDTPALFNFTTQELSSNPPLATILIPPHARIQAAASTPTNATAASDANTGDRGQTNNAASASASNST
Sequence of MAPK9 (human) (P45984 whole entry, looked up): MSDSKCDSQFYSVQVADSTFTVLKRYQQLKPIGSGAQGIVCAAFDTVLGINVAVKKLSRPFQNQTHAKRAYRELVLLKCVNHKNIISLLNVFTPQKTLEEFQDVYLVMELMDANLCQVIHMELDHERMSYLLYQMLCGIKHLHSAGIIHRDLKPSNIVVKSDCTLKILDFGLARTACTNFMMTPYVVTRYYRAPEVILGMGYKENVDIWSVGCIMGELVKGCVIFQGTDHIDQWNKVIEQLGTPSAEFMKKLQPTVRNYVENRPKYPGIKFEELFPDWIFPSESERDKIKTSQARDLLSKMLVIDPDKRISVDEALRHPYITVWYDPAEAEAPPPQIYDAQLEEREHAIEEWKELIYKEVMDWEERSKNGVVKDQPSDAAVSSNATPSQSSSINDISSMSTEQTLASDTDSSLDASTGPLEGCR
Sequence of PHKG1 (human) (Q16816 whole entry, looked up): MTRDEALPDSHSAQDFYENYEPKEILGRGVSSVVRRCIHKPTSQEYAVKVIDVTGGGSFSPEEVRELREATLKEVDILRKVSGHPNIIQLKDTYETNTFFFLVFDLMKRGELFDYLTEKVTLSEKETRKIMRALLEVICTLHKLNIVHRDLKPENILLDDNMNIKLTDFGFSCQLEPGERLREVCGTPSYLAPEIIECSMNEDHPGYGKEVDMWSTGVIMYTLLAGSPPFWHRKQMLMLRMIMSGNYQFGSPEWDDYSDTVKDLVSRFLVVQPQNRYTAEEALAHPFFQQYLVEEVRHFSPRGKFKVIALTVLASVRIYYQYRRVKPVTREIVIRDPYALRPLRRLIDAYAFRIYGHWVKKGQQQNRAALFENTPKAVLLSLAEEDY
Sequence of RPS6KA5 KD1 KD2 (human) (O75582 whole entry, looked up): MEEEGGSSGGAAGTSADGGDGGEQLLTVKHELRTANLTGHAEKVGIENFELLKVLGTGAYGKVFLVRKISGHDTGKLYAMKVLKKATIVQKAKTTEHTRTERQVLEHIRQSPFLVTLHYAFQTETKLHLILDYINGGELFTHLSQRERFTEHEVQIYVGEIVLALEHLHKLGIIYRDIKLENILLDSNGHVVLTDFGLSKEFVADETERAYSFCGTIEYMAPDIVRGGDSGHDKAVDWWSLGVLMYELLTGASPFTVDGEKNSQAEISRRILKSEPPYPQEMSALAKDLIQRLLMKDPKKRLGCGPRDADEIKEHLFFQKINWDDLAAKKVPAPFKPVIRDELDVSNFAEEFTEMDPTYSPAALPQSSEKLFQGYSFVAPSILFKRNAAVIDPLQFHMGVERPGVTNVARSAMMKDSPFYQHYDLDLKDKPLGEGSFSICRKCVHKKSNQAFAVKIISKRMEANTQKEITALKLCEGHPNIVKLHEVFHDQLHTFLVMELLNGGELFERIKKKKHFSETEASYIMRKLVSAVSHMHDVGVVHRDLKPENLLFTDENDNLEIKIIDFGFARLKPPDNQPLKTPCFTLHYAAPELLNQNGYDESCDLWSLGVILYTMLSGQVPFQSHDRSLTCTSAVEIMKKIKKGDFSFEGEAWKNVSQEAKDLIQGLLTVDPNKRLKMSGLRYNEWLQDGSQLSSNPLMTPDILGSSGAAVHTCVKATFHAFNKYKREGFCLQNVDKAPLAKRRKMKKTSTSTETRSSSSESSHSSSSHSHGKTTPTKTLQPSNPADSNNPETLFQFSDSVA
Sequence of PIM1 (human) (P11309 whole entry, looked up): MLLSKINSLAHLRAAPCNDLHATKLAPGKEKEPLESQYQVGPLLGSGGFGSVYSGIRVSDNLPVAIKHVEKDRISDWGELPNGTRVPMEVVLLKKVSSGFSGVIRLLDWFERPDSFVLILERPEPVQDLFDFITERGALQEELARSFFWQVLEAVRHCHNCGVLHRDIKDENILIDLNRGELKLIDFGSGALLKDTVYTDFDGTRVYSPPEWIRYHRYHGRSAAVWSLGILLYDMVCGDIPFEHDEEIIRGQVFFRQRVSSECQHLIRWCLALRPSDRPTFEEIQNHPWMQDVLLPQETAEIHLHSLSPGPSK
Sequence of MAPK3 (human) (P27361 whole entry, looked up): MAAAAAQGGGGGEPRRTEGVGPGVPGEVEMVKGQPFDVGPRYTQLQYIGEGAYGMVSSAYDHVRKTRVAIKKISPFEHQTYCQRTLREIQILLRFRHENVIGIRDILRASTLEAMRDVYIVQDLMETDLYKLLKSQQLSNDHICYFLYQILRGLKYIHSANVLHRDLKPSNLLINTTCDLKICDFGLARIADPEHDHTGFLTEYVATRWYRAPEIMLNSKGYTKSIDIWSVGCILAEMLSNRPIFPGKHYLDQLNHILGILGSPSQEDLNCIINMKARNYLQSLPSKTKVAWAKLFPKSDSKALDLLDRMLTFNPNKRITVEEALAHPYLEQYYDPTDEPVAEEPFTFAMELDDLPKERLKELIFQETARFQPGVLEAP

COc1ccc(-c2ccc3c(N4CCOCC4)nc(N4C[C@@H](C)O[C@@H](C)C4)nc3n2)cc1CO
per cent of control (BRSK2 (human); compound 1.0 µM): 90%
per cent of control (BRSK2 (human); compound 10.0 µM): 72%
per cent of control (BTK (human); compound 1.0 µM): 85%
per cent of control (BTK (human); compound 10.0 µM): 81%
per cent of control (CAMKK2 (human); compound 1.0 µM): 108%
per cent of control (CAMKK2 (human); compound 10.0 µM): 94%
per cent of control (CHEK1 (human); compound 1.0 µM): 87%
per cent of control (CHEK1 (human); compound 10.0 µM): 86%
per cent of control (CaMK1 (human); compound 1.0 µM): 96%
per cent of control (CaMK1 (human); compound 10.0 µM): 101%
per cent of control (DYRK1A (human); compound 1.0 µM): 94%
per cent of control (DYRK1A (human); compound 10.0 µM): 80%
per cent of control (DYRK2 (human); compound 1.0 µM): 92%
per cent of control (DYRK2 (human); compound 10.0 µM): 96%
per cent of control (EPHA2 (human); compound 1.0 µM): 108%
per cent of control (EPHA2 (human); compound 10.0 µM): 96%
per cent of control (FLT1 (human); compound 1.0 µM): 92%
per cent of control (FLT1 (human); compound 10.0 µM): 92%
per cent of control (GSK3B (human); compound 1.0 µM): 95%
per cent of control (GSK3B (human); compound 10.0 µM): 91%
per cent of control (IKBKB (human); compound 1.0 µM): 104%
per cent of control (IKBKB (human); compound 10.0 µM): 89%
per cent of control (IKBKE (human); compound 1.0 µM): 99%
per cent of control (IKBKE (human); compound 10.0 µM): 100%
per cent of control (LCK (mouse); compound 1.0 µM): 69%
per cent of control (LCK (mouse); compound 10.0 µM): 104%
per cent of control (MAP2K1 (human); compound 1.0 µM): 96%
per cent of control (MAP2K1 (human); compound 10.0 µM): 43%
per cent of control (MAPK1 (human); compound 1.0 µM): 102%
per cent of control (MAPK1 (human); compound 10.0 µM): 92%
per cent of control (MAPK14 (human); compound 1.0 µM): 101%
per cent of control (MAPK14 (human); compound 10.0 µM): 96%
per cent of control (MAPK15 (human); compound 1.0 µM): 88%
per cent of control (MAPK15 (human); compound 10.0 µM): 92%
per cent of control (MAPK3 (human); compound 1.0 µM): 102%
per cent of control (MAPK3 (human); compound 10.0 µM): 87%
per cent of control (MAPK9 (human); compound 1.0 µM): 101%
per cent of control (MAPK9 (human); compound 10.0 µM): 103%
per cent of control (MAPKAPK5 (human); compound 1.0 µM): 67%
per cent of control (MAPKAPK5 (human); compound 10.0 µM): 87%
per cent of control (MARK3 (human); compound 1.0 µM): 93%
per cent of control (MARK3 (human); compound 10.0 µM): 93%
per cent of control (MKNK1 (human); compound 1.0 µM): 111%
per cent of control (MKNK1 (human); compound 10.0 µM): 75%
per cent of control (NEK2 (human); compound 1.0 µM): 92%
per cent of control (NEK2 (human); compound 10.0 µM): 86%
per cent of control (NEK6 (human); compound 1.0 µM): 74%
per cent of control (NEK6 (human); compound 10.0 µM): 83%
per cent of control (PAK4 (human); compound 1.0 µM): 11%
per cent of control (PAK4 (human); compound 10.0 µM): 75%
per cent of control (PDPK1 (human); compound 1.0 µM): 80% and 89%
per cent of control (PDPK1 (human); compound 10.0 µM): 91% and 101%
per cent of control (PHKG1 (human); compound 1.0 µM): 89%
per cent of control (PHKG1 (human); compound 10.0 µM): 116%
per cent of control (PIM1 (human); compound 1.0 µM): 89%
per cent of control (PIM1 (human); compound 10.0 µM): 98%
per cent of control (PIM2 (human); compound 1.0 µM): 86%
per cent of control (PIM2 (human); compound 10.0 µM): 78%
per cent of control (PKN2 (human); compound 1.0 µM): 95%
per cent of control (PKN2 (human); compound 10.0 µM): 105%
per cent of control (RPS6KA3 KD1 KD2 (human); compound 1.0 µM): 103%
per cent of control (RPS6KA3 KD1 KD2 (human); compound 10.0 µM): 104%
per cent of control (RPS6KA5 KD1 KD2 (human); compound 1.0 µM): 101%
per cent of control (RPS6KA5 KD1 KD2 (human); compound 10.0 µM): 117%
per cent of control ([1]; compound 1.0 µM): 104%
per cent of control ([1]; compound 10.0 µM): 98%

CCC(=O)N1CCN(c2ccc(-n3c(=O)ccc4cnc5ccc(-c6cnc7ccccc7c6)cc5c43)cc2C(F)(F)F)CC1
per cent of control (BRSK2 (human); compound 1.0 µM): 102%
per cent of control (BRSK2 (human); compound 10.0 µM): 104%
per cent of control (BTK (human); compound 1.0 µM): 104%
per cent of control (BTK (human); compound 10.0 µM): 56%
per cent of control (CAMKK2 (human); compound 1.0 µM): 95%
per cent of control (CAMKK2 (human); compound 10.0 µM): 81%
per cent of control (CHEK1 (human); compound 1.0 µM): 106%
per cent of control (CHEK1 (human); compound 10.0 µM): 125%
per cent of control (CHEK2 (human); compound 1.0 µM): 90%
per cent of control (CHEK2 (human); compound 10.0 µM): 83%
per cent of control (CaMK1 (human); compound 1.0 µM): 104%
per cent of control (CaMK1 (human); compound 10.0 µM): 77%
per cent of control (DYRK1A (human); compound 1.0 µM): 92%
per cent of control (DYRK1A (human); compound 10.0 µM): 75%
per cent of control (DYRK2 (human); compound 1.0 µM): 99%
per cent of control (DYRK2 (human); compound 10.0 µM): 99%
per cent of control (EPHA2 (human); compound 1.0 µM): 120%
per cent of control (EPHA2 (human); compound 10.0 µM): 87%
per cent of control (FLT1 (human); compound 1.0 µM): 108%
per cent of control (FLT1 (human); compound 10.0 µM): 84%
per cent of control (GSK3B (human); compound 1.0 µM): 79%
per cent of control (GSK3B (human); compound 10.0 µM): 49%
per cent of control (IKBKB (human); compound 1.0 µM): 109%
per cent of control (IKBKB (human); compound 10.0 µM): 63%
per cent of control (IKBKE (human); compound 1.0 µM): 96%
per cent of control (IKBKE (human); compound 10.0 µM): 85%
per cent of control (LCK (mouse); compound 1.0 µM): 93%
per cent of control (LCK (mouse); compound 10.0 µM): 78%
per cent of control (MAP2K1 (human); compound 1.0 µM): 69%
per cent of control (MAP2K1 (human); compound 10.0 µM): 22%
per cent of control (MAPK1 (human); compound 1.0 µM): 102%
per cent of control (MAPK1 (human); compound 10.0 µM): 90%
per cent of control (MAPK14 (human); compound 1.0 µM): 95%
per cent of control (MAPK14 (human); compound 10.0 µM): 99%
per cent of control (MAPK15 (human); compound 1.0 µM): 78%
per cent of control (MAPK15 (human); compound 10.0 µM): 46%
per cent of control (MAPK3 (human); compound 1.0 µM): 99%
per cent of control (MAPK3 (human); compound 10.0 µM): 96%
per cent of control (MAPK9 (human); compound 1.0 µM): 98%
per cent of control (MAPKAPK5 (human); compound 1.0 µM): 118%
per cent of control (MAPKAPK5 (human); compound 10.0 µM): 49%
per cent of control (MARK3 (human); compound 1.0 µM): 99%
per cent of control (MARK3 (human); compound 10.0 µM): 98%
per cent of control (MKNK1 (human); compound 1.0 µM): 93%
per cent of control (MKNK1 (human); compound 10.0 µM): 96%
per cent of control (NEK2 (human); compound 1.0 µM): 88%
per cent of control (NEK2 (human); compound 10.0 µM): 99%
per cent of control (NEK6 (human); compound 1.0 µM): 100%
per cent of control (PAK4 (human); compound 1.0 µM): 110%
per cent of control (PAK4 (human); compound 10.0 µM): 66%
per cent of control (PDPK1 (human); compound 1.0 µM): 100% and 117%
per cent of control (PDPK1 (human); compound 10.0 µM): 98% and 101%
per cent of control (PHKG1 (human); compound 1.0 µM): 110%
per cent of control (PHKG1 (human); compound 10.0 µM): 99%
per cent of control (PIM1 (human); compound 1.0 µM): 82%
per cent of control (PIM1 (human); compound 10.0 µM): 24%
per cent of control (PIM2 (human); compound 1.0 µM): 86%
per cent of control (PIM2 (human); compound 10.0 µM): 96%
per cent of control (PKN2 (human); compound 1.0 µM): 97%
per cent of control (PKN2 (human); compound 10.0 µM): 114%
per cent of control (RPS6KA3 KD1 KD2 (human); compound 1.0 µM): 96%
per cent of control (RPS6KA3 KD1 KD2 (human); compound 10.0 µM): 81%
per cent of control (RPS6KA5 KD1 KD2 (human); compound 1.0 µM): 86%
per cent of control ([1]; compound 1.0 µM): 97%
per cent of control ([1]; compound 10.0 µM): 81%
